# Laboratory results: patent US7071188B2 (priority 2001, dated 2006)
# Tests used:
# Fusarium (FFUSARGRAMI) = test: Seed treatment test for field corn and sweet corn, in-furrow Fusarium inoculation (Example 1); type: in vivo, Fusarium on corn variety H-8874RR; conditions: rates gai/100 kg: Apron XL 3LS 1, Maxim XL 3.5, CGA-301940 2.5, CAPTAN 55 + Allegiance-FL 2
# Description: (§1) Seed Treatment Test for Field Corn and Sweet Corn
# [1] = tested on: natural disease pressure on corn variety N58-D1; test: Seed treatment test for field corn and sweet corn, no inoculation, natural disease pressure (Example 2); type: in vivo; conditions: rates gai/100 kg: Apron XL 3LS 1, Maxim XL 3.5, CGA-301940 2.5, CAPTAN 55 + Allegiance-FL 2
# Description: as §1
compound,measurement,setting,value
"CO/C=C(/C(=O)OC)c1ccccc1Oc1cc(Oc2ccccc2C#N)ncn1 [CGA-301940, Azoxystrobin]",Stand Count percent increase (27 DAP),"Fusarium (FFUSARGRAMI); 27 DAP, vs Check (inoculated)",−10.3%
same,Stand Count (No Plants/Plot) 27 DAP,Fusarium (FFUSARGRAMI); 27 DAP,13.0b No Plants/Plot
same,% Vigor percent increase (47 DAP),"Fusarium (FFUSARGRAMI); 47 DAP, vs Check (inoculated)",6.6%
same,Stand Count percent increase (47 DAP),"Fusarium (FFUSARGRAMI); 47 DAP, vs Check (inoculated)",9.8%
same,% Vigor 47 DAP,Fusarium (FFUSARGRAMI); 47 DAP,80.0a %
same,Stand Count (No Plants/Plot) 47 DAP,Fusarium (FFUSARGRAMI); 47 DAP,42.3d No Plants/Plot
same,Stand Count percent increase (33 DAP),"[1]; 33 DAP, vs Check (non-inoculated)",4.5%
same,Stand Count (No Plants/Plot) 33 DAP,[1]; 33 DAP,46.5c No Plants/Plot
same,Stand Count percent increase (49 DAP),"[1]; 49 DAP, vs Check (non-inoculated)",6.0%
same,Stand Count (No Plants/Plot) 49 DAP,[1]; 49 DAP,52.8c No Plants/Plot
